“Also recorded” adds a separate entry of the source. Where two headings read alike, the source gives them in different places.
Assays:
HCT116p53–/– = assay: MTS cytotoxicity assay, 72 h; assay type: cell-based; settings: read-out: IC50 HCT116p53–/–
CCRF-CEM lymphoblasts = assay: FACS analysis of cell cycle, apoptosis, mitosis and polyploidy; settings: for Mitosis: phospho-Histone (Ser10); for Apoptosis: sub-G0/G1 DNA content, % of positive cells
CCRF-CEM = assay: MTS cytotoxicity assay, 72 h; assay type: cell-based; settings: Homo sapiens, CCRF-CEM, 72 h, read-out: IC50 CCRF-CEM, MTS assay, 3-day incubation, mean ± SD of 3 experiments
MRC-5 = assay: MTS cytotoxicity assay, 72 h; assay type: cell-based; settings: Homo sapiens, MRC5, 72 h, read-out: IC50 MRC-5
K562 = assay: MTS cytotoxicity assay, 72 h; assay type: cell-based; settings: Homo sapiens, K562, 72 h, read-out: IC50 K562
HUVEC = assay: MTS cytotoxicity assay, 72 h; assay type: cell-based; settings: Homo sapiens, 3-day incubation, mean ± SD
HCT116 = assay: MTS cytotoxicity assay, 72 h; assay type: cell-based; settings: Homo sapiens, HCT-116, 72 h, read-out: IC50 HCT116
[1] = test system: microtubules in U2OS cells; assay: Immunofluorescence of microtubule organization; assay type: cell-based, human; settings: 15 h
Procedure: DMSO at appropriate dilution served as control.
Immunofluorescence microscopy on formaldehyde-fixed, Triton X-100 extracted cells (F/Tx) was performed as previously described. Extraction and fixation steps were carried out in a microtubule stabilizing buffer consisting of 0.1 M KMes, 2 mM EGTA, 2 mM MgCl2, 4% polyethylene glycol 6000, pH 6.9. Cells were fixed for 30 min in 3% formaldehyde before extraction for 4 min with 0.5% Triton X-100 at 37 °C. Mouse monoclonal antibody TU-01 (IgG1) directed to α-tubulin , in the form of hybridoma spent culture medium was diluted 1:10. The DyLight 549-conjugated antimouse antibody (Jackson Immunoresearch Laboratories, West Grove, PA, USA) was diluted 1:500. Samples were mounted in MOWIOL 4–88 (Calbiochem, San Diego, CA, USA) supplemented with 4,6-diamidino-2-phenylindole (DAPI; Sigma-Aldrich, St. Louis, MO, USA) and examined with an Olympus AX-70 Provis microscope (Olympus, Hamburg, Germany) equipped with a 60×/1.0 water objective.

K562-TAX = assay: MTS cytotoxicity assay, 72 h; assay type: cell-based; settings: read-out: IC50 K562-TAX
CEM-DNR = assay: MTS cytotoxicity assay, 72 h; assay type: cell-based; settings: Homo sapiens, read-out: IC50 CEM-DNR
BJ = assay: MTS cytotoxicity assay, 72 h; assay type: cell-based; settings: Homo sapiens, read-out: IC50 BJ
U2OS = assay: MTS cytotoxicity assay, 72 h; assay type: cell-based, human

## COc1cc2c(c(OC)c1OC)-c1ccc(OC)c(=O)cc1[C@@H](NC(=O)CCC1=C3C(C)=CC(C)=[N+]3[B-](F)(F)n3c(C)cc(C)c31)CC2 [CB1]
HCT116p53–/–
  IC50: 580 ± 63 nM
CCRF-CEM lymphoblasts; 1×IC50, 24 h
  G0/G1: 36.69%
  G2/M: 38.6%
  Polyploid cells: 17.25%
  S: 24.71%
  Mitosis: 7.96%
  Apoptosis: 5.32%
CCRF-CEM lymphoblasts; 5×IC50, 24 h
  G0/G1: 50.26%
  G2/M: 48.02%
  Polyploid cells: 19.14%
  S: 1.72%
  Mitosis: 17.85%
  Apoptosis: 11.73%
CCRF-CEM
  IC50: 400 ± 18 nM
MRC-5
  IC50: 5690 ± 639 nM
K562
  IC50: 450 ± 54 nM
HUVEC
  IC50: 670 ± 33 nM
Panel of cell lines
  RI (resistance index): 4.16
  SI (selectivity index): 13.66
HCT116
  IC50: 500 ± 32 nM
[1]; 10 μM
  effect on microtubules (in words): completely disrupted microtubules
K562-TAX
  IC50: 1470 ± 361 nM
CEM-DNR
  IC50: 2070 ± 212 nM
BJ
  IC50: 8350 ± 419 nM

## COc1cc2c(c(OC)c1OC)-c1ccc(OC)c(=O)cc1[C@@H](n1cc(CCCC3=C4C(C)=CC(C)=[N+]4[B-](F)(F)n4c(C)cc(C)c43)nn1)CC2 [CB4]
HCT116p53–/–
  IC50: 120 ± 12 nM
CCRF-CEM lymphoblasts; 1×IC50, 24 h
  G0/G1: 41.19%
  G2/M: 27.75%
  Polyploid cells: 19.29%
  S: 31.06%
  Mitosis: 2.76%
  Apoptosis: 3.04%
CCRF-CEM lymphoblasts; 5×IC50, 24 h
  G0/G1: 5.49%
  Polyploid cells: 23.72%
  S: 1.83%
  Mitosis: 64.43%
  Apoptosis: 12.24%
CCRF-CEM
  IC50: 20 ± 0.9 nM
MRC-5
  IC50: > 50000 nM
K562
  IC50: 88 ± 13 nM
HUVEC
  IC50: < 12.2 nM
Panel of cell lines
  cytotoxic activity across the cell line panel (in words): changed only slightly
HCT116
  IC50: 100 ± 4 nM
[1]; 10 μM
  effect on microtubules (in words): microtubule remnants were detectable; also recorded: perinuclear bundles were observed; also recorded: disruption of microtubule organization and generation of perinuclear microtubule bundles
BJ
  IC50: > 50000 nM

## COc1cc2c(c(OC)c1OC)-c1ccc(OC)c(=O)cc1[C@@H](n1cc(CCCCCCCCC3=C4C(C)=CC(C)=[N+]4[B-](F)(F)n4c(C)cc(C)c43)nn1)CC2 [CB5]
HCT116p53–/–
  IC50: 770 ± 63 nM
CCRF-CEM lymphoblasts; 1×IC50, 24 h
  G0/G1: 11.02%
  G2/M: 85.47%
  Polyploid cells: 24.32%
  S: 3.51%
  Mitosis: 42.49%
  Apoptosis: 9.64%
CCRF-CEM lymphoblasts; 5×IC50, 24 h
  G0/G1: 5.27%
  Polyploid cells: 26.07%
  S: 0.77%
  Mitosis: 60.70%
  Apoptosis: 10.96%
CCRF-CEM
  IC50: 420 ± 14 nM
U2OS; Homo sapiens, U2OS, 72 h, read-out: IC50 U2OS, MTS assay, 3-day incubation, mean ± SD
  IC50: < 2000 nM
U2OS; read-out: IC50 U2OS, MTS assay, 3-day incubation, mean ± SD
  IC50: 1040 ± 141 nM
MRC-5
  IC50: > 50000 nM
K562
  IC50: 500 ± 122 nM
HUVEC
  IC50: 450 ± 12 nM
Panel of cell lines
  RI (resistance index): 2.49
  SI (selectivity index): >74.18
HCT116
  IC50: 640 ± 65 nM
[1]; 10 μM
  effect on microtubules (in words): completely disrupted microtubules
K562-TAX
  IC50: 900 ± 26 nM
CEM-DNR
  IC50: 1390 ± 139 nM
BJ
  IC50: > 50000 nM

## COc1cc(C2=C3C(C)=CC(C)=[N+]3[B-](F)(F)n3c(C)cc(C)c32)ccc1OCc1cn([C@H]2CCc3cc(OC)c(OC)c(OC)c3-c3ccc(OC)c(=O)cc32)nn1 [CB6]
HCT116p53–/–
  IC50: 380 ± 57 nM
CCRF-CEM lymphoblasts; 1×IC50, 24 h
  G0/G1: 12.32%
  G2/M: 55.58%
  Polyploid cells: 23.13%
  S: 32.1%
  Mitosis: 29.41%
  Apoptosis: 7.55%
CCRF-CEM lymphoblasts; 5×IC50, 24 h
  G0/G1: 3.72%
  Polyploid cells: 24.76%
  S: 1.88%
  Mitosis: 61.11%
  Apoptosis: 14.32%
CCRF-CEM
  IC50: 140 ± 10 nM
MRC-5
  IC50: > 50000 nM
K562
  IC50: 26 ± 1 nM
HUVEC
  IC50: < 12.2 nM
Panel of cell lines
  cytotoxic activity across the cell line panel (in words): changed only slightly
HCT116
  IC50: 430 ± 32.5 nM
[1]; 10 μM
  effect on microtubules (in words): microtubule remnants were detectable
BJ
  IC50: > 50000 nM

## COc1cc2c(c(OC)c1OC)-c1ccc(OC)c(=O)cc1[C@@H](NC(C)=O)CC2 [Col, colchicine, reference compound]
CCRF-CEM lymphoblasts; 1×IC50, 24 h
  G0/G1: 2.61%
  G2/M: 80.55%
  Polyploid cells: 14.45%
  S: 16.84%
  Mitosis: 58.35%
  Apoptosis: 13.67%
CCRF-CEM lymphoblasts; 5×IC50, 24 h
  G0/G1: 4.73%
  G2/M: 70.57%
  Polyploid cells: 14.73%
  S: 24.71%
  Mitosis: 64.48%
  Apoptosis: 11.47%
CCRF-CEM lymphoblasts; both 1 × IC50 and 5 × IC50
  polyploidization in CCRF-CEM cells (in words): induced polyploidization
[1]; 0.1 μM
  effect on microtubules (in words): effectively depolymerized microtubules

Reference: publication PMC12261228 (ACS Pharmacology & Translational Science, 2025)
